Active and inactive are the calls of the source.
Assays:
[1] = biological target: Ribosomal protein S6 kinase alpha-2 (Homo sapiens) (UniProt Q15349); details: Compound concentration 1000.0 nM
[2] = biological target: Beta-3 adrenergic receptor (Homo sapiens) (UniProt P13945); details: Compound concentration 10.0 uM
[3] = test system: Tyrosine-protein kinase ABL1 (Homo sapiens), P00519 [T315I]; details: Compound concentration 1000.0 nM
[4] = biological target: Muscarinic acetylcholine receptor M1 (Homo sapiens) (UniProt P11229); details: Compound concentration 10.0 uM
[5] = biological target: T1, 5-hydroxytryptamine receptor 1D (Homo sapiens, UniProt P28221); details: Compound concentration 10.0 uM
T1 sequence (P28221 whole entry): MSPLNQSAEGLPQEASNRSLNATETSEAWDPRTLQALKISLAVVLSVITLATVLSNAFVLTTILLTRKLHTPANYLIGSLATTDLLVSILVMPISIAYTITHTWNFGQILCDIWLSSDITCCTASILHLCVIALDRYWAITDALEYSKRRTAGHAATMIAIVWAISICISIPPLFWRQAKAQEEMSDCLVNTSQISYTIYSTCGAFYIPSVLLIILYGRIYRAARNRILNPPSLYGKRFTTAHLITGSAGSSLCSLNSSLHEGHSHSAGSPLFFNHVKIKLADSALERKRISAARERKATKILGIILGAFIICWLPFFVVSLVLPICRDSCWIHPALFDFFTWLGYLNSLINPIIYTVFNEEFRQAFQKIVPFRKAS

[6] = biological target: Serine/threonine-protein kinase Nek2 (Homo sapiens) (UniProt P51955); details: Compound concentration 1000.0 nM
Chain of Serine/threonine-protein kinase Nek2 (Homo sapiens) (P51955 whole entry): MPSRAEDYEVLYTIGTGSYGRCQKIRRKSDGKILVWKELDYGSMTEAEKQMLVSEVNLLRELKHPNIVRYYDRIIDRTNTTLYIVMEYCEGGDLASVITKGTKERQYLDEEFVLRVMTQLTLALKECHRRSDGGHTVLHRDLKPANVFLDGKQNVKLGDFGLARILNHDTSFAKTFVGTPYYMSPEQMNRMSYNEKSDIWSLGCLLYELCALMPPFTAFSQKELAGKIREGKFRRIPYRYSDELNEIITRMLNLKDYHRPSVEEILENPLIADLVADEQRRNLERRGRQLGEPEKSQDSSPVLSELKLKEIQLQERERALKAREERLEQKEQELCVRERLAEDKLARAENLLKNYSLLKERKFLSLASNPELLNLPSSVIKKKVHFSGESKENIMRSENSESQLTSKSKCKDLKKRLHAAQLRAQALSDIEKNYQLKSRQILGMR

[7] = biological target: 5-hydroxytryptamine receptor 1A (Homo sapiens) (UniProt P08908); details: Compound concentration 10.0 uM
[8] = biological target: Serine/threonine-protein kinase PAK 5 (Homo sapiens) (UniProt Q9P286); details: Compound concentration 1000.0 nM
Chain of Serine/threonine-protein kinase PAK 5 (Homo sapiens) (Q9P286 whole entry, looked up): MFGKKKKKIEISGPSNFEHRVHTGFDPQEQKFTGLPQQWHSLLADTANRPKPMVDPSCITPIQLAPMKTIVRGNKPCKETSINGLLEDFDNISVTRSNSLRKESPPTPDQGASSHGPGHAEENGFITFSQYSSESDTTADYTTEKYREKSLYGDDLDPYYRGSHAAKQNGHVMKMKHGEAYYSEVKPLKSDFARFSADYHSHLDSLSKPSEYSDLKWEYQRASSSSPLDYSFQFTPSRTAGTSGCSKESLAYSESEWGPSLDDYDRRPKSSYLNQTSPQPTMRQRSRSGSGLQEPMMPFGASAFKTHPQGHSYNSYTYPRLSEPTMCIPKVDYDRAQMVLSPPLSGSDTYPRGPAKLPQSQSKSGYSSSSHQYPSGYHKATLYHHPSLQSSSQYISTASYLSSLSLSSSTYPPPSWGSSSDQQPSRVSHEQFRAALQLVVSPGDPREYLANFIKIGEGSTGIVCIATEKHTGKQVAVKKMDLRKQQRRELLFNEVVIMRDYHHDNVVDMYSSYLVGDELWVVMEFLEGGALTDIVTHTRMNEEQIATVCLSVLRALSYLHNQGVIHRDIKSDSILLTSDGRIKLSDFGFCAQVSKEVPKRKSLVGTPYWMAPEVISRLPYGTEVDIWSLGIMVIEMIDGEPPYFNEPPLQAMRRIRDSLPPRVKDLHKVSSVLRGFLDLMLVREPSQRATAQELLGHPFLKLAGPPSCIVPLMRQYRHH

[9] = biological target: Muscarinic acetylcholine receptor M2 (Homo sapiens) (UniProt P08172); details: Compound concentration 10.0 uM
[10] = biological target: Beta-1 adrenergic receptor (Homo sapiens) (UniProt P08588); details: Compound concentration 10.0 uM
[11] = biological target: Mitogen-activated protein kinase kinase kinase 19 (Homo sapiens) (UniProt Q56UN5); details: Compound concentration 1000.0 nM
[12] = biological target: Dual specificity testis-specific protein kinase 1 (Homo sapiens) (UniProt Q15569); details: Compound concentration 1000.0 nM
Chain of Dual specificity testis-specific protein kinase 1 (Homo sapiens) (Q15569 whole entry, looked up): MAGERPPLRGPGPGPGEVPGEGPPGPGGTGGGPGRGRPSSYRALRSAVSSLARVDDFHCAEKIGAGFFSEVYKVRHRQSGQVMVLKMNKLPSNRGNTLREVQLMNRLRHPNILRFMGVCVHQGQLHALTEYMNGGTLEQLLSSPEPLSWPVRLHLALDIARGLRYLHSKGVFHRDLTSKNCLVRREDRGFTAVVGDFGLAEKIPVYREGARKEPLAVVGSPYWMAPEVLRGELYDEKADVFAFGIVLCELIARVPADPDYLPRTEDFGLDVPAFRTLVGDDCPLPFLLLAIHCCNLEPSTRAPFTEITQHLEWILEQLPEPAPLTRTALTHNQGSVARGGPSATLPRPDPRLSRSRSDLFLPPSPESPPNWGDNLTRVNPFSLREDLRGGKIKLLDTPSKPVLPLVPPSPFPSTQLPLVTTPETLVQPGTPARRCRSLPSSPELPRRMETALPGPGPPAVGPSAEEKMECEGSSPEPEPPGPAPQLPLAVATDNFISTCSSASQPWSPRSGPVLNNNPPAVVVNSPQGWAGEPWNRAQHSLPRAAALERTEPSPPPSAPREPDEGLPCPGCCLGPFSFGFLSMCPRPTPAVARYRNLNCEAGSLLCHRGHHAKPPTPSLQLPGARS

[13] = test system: Epidermal growth factor receptor (Homo sapiens), P00533 [UNDEFINED MUTATION]; details: Compound concentration 1000.0 nM
Chain of Epidermal growth factor receptor (Homo sapiens), P00533 [UNDEFINED MUTATION] (P00533 whole entry, looked up, change not shown): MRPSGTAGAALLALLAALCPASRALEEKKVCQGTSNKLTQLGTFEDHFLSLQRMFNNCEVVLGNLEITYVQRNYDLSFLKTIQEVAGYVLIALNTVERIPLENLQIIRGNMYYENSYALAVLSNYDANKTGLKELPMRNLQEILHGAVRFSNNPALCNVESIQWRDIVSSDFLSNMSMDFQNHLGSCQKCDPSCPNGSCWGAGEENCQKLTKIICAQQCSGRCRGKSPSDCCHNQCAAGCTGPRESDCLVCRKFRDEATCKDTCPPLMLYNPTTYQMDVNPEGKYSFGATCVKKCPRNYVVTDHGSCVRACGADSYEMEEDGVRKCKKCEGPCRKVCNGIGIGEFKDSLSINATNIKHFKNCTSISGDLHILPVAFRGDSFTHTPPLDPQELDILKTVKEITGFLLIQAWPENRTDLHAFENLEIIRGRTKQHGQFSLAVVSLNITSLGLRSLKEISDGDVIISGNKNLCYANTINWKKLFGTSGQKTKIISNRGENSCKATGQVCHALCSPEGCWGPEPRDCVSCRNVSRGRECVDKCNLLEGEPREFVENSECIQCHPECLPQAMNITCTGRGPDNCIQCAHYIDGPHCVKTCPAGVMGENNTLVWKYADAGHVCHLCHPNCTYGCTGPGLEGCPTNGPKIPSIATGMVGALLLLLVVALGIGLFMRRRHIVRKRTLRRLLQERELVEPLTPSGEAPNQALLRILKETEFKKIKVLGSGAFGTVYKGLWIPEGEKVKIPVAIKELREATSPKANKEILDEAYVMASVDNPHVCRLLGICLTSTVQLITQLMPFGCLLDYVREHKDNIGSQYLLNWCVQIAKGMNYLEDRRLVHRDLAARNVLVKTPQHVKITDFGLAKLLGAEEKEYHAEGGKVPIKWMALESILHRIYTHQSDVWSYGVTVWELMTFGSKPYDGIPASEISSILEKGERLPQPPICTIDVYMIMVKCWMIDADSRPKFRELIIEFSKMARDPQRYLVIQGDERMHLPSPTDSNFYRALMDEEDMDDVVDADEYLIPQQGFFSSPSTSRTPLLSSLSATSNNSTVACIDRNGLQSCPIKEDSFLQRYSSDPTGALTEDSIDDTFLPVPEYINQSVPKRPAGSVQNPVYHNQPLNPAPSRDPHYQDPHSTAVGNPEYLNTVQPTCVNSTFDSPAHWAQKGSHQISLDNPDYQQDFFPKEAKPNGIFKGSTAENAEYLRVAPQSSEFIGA

[14] = biological target: T1, 5-hydroxytryptamine receptor 1D; assay: GPCRScan assay: inhibition of 5-HT1D; set-up: radioligand conc. used [nm] 1.0 – 2.0, parental cells HEKT
[15] = biological target: 5-hydroxytryptamine receptor 2C (Homo sapiens) (UniProt P28335); details: Compound concentration 10.0 uM
[16] = biological target: Alpha-1A adrenergic receptor (Homo sapiens) (UniProt P35348); details: Compound concentration 10.0 uM
[17] = biological target: Alpha-2C adrenergic receptor (Homo sapiens) (UniProt P18825); details: Compound concentration 10.0 uM
[18] = biological target: 5-hydroxytryptamine receptor 6 (Homo sapiens) (UniProt P50406); details: Compound concentration 10.0 uM
Chain of 5-hydroxytryptamine receptor 6 (Homo sapiens) (P50406 whole entry): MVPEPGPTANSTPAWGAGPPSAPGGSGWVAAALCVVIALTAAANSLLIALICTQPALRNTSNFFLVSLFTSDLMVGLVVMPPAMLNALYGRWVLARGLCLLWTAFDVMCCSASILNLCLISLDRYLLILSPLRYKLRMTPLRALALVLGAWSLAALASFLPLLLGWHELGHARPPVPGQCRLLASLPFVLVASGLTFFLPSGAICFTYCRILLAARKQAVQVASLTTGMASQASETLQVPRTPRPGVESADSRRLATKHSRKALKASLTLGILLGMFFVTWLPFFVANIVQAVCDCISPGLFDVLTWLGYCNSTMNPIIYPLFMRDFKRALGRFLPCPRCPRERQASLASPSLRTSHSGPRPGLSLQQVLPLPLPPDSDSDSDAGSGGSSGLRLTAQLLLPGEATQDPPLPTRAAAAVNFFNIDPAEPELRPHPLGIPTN

[19] = biological target: Muscarinic acetylcholine receptor M3 (Homo sapiens) (UniProt P20309); details: Compound concentration 10.0 uM
[20] = biological target: Sigma intracellular receptor 2 (Homo sapiens, UniProt Q5BJF2); assay: GPCRScan assay: inhibition of Sigma 2; set-up: radioligand conc. used [nm] 5.0, parental cells HEKT
[21] = biological target: Diacylglycerol O-acyltransferase 2 (Homo sapiens, UniProt Q96PD7); assay: Thin Layer Chromatography (TLC) assay (human DGAT2)
Chain of Diacylglycerol O-acyltransferase 2 (Q96PD7 whole entry): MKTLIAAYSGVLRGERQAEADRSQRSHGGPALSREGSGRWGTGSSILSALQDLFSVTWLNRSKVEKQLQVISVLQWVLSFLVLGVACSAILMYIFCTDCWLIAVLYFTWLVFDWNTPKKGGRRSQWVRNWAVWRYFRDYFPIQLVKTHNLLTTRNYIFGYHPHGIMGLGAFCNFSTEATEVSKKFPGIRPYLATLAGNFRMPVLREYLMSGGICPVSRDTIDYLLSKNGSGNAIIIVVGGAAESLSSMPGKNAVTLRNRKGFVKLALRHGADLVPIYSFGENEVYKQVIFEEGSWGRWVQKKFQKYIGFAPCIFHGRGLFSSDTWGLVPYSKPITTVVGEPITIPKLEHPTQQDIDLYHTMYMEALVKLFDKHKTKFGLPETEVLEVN

[22] = biological target: Alpha-2A adrenergic receptor (Homo sapiens) (UniProt P08913); details: Compound concentration 10.0 uM
[23] = biological target: Mogat2 (Mus musculus); assay: RapidFire/MS assay (mouse MGAT2)
[24] = biological target: Diacylglycerol O-acyltransferase 1 (Homo sapiens, UniProt O75907); assay: Thin Layer Chromatography (TLC) assay (human DGAT1)
[25] = biological target: Sigma non-opioid intracellular receptor 1 (Homo sapiens) (UniProt Q99720); details: Compound concentration 10.0 uM
[26] = biological target: Diacylglycerol O-acyltransferase 2-like protein MOGAT2 (Homo sapiens) (UniProt Q3SYC2); assay: RapidFire/MS assay (human MGAT2)

Chain of Ribosomal protein S6 kinase alpha-2 (Homo sapiens) (Q15349 whole entry): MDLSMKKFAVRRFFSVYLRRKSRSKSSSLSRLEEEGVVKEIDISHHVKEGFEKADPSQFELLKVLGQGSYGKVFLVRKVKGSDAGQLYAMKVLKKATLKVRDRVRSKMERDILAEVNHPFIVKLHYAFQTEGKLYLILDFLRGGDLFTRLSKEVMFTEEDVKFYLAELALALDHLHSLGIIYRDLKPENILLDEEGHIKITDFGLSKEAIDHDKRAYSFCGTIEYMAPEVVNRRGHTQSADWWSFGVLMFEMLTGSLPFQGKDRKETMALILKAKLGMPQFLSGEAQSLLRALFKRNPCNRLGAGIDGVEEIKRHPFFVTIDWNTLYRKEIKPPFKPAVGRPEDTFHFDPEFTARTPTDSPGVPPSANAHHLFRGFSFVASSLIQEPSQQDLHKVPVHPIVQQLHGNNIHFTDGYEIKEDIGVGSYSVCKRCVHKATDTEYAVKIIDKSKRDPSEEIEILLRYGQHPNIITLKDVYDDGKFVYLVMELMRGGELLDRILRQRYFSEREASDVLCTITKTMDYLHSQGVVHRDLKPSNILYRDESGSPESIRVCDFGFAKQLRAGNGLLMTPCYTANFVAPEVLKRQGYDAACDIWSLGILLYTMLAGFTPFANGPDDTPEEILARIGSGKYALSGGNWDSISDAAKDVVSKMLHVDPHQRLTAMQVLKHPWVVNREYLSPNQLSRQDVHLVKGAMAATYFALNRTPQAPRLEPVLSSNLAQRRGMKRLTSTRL

Nc1cnc(N2CCc3cc(S(=O)(=O)Nc4c(F)cc(Cl)cc4F)cc(N4CCCC4=O)c32)nc1
inactive: residual activity [1] 100% | inhibition [2] -2.69% | residual activity [3] 100% | inhibition [4] -9.48% | inhibition [5] 9.24% | residual activity [6] 89% | inhibition [7] 4.45% | residual activity [8] 90% | inhibition [9] 3.7% | inhibition [10] 8.84% | residual activity [11] 100% | residual activity [12] 100% | residual activity [13] 100%

Cn1nc(C(F)(F)F)cc1-c1cnc(N2CCc3cc(S(=O)(=O)Nc4c(F)cc(Cl)cc4F)cc(N4CCCC4=O)c32)nc1 [TP-020]
active: inhibition [5] 55.3% | IC50 [23] 2.4 nM | IC50 [26] 7.8 nM
4.57 µM: Ki ([14]; read-out: pKi (converted))
inactive: residual activity [1] 77% | inhibition [15] 31% | inhibition [16] 6.96% | inhibition [17] 17.9% | inhibition [18] 6.67% | residual activity [3] 74% | inhibition [19] 7.26% | residual activity [6] 100% | residual activity [8] 100% | inhibition [22] -9.1% | inhibition [25] 12.8% | residual activity [11] 82% | residual activity [12] 86% | residual activity [13] 100%
4.66 µM: Ki ([14]; read-out: Ki)
> 30 µM (not active): IC50 [21] | IC50 [24]
10 µM: Ki [20]

Reference: ChEMBL document CHEMBL4507302, “Data for DCP probe TP-020” (2021)
